This passage reports GI50 and TGI results from PubChem BioAssay (NCI).

Among the test systems are K-562 leukemia; TK-10 renal; A498 renal; HCT-116 colon; DU-145 prostate; COLO 205 colon; UACC-257 melanoma; OVCAR-8 ovarian; BT-549 breast; HCC-2998 colon.
Assay in all cases: NCI anticancer screen, dose series, 48 h

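Five compound concentrations were applied to cells in 96-well plates for 48 hours; endpoints were derived by simple linear interpolation of the resulting dose-response curve. Abbreviation: GI50, concentration required for 50% inhibition of growth. Definition used: TGI = concentration required for complete inhibition of growth.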

Consider `Cc1ccc2c(O)c(O)cc(NC(C)CCCN)c2n1` (configuration not stated), for which the GI50 with K-562 leukemia was 12.3 µM; in the assay on TK-10 renal, over 100 µM; with A498 renal it was over 100 µM; in the assay on HCT-116 colon, 3.06 µM; in the assay with DU-145 prostate it was 10.5 µM; in the assay with COLO 205 colon it was 3.39 µM. Further, the GI50 is 19.8 µM in the assay with UACC-257 melanoma, 4.35 µM in the assay on OVCAR-8 ovarian, 32.1 µM in the assay on BT-549 breast and 9.11 µM in the assay with HCC-2998 colon. The TGI in the assay on K-562 leukemia is 60.4 µM; in the assay on TK-10 renal, over 100 µM; in the assay on A498 renal, over 100 µM; with HCT-116 colon, over 40 µM; with DU-145 prostate, 31.4 µM; in the assay on COLO 205 colon, 42.5 µM. For the same compound, the TGI was 54.5 µM with UACC-257 melanoma, over 100 µM with OVCAR-8 ovarian, over 68.6 µM with BT-549 breast and over 51.5 µM with HCC-2998 colon.

`CCN1c2ccccc2C(Cl)(c2ccc(N(C)C)cc2)c2ccccc21`: the GI50 in the assay with K-562 leukemia is 3.1 µM; in the assay with TK-10 renal, 11.1 µM; with A498 renal, 59.6 µM; with HCT-116 colon, 2.66 µM; in the assay with DU-145 prostate, 5.5 µM; in the assay with COLO 205 colon, 2.31 µM. The GI50 with BT-549 breast was 12 µM; in the assay on HCC-2998 colon, 10.9 µM. The TGI in the assay with K-562 leukemia was 25.7 µM; in the assay on TK-10 renal it was 29.1 µM; in the assay with A498 renal, over 100 µM; in the assay with HCT-116 colon, 10.3 µM; with DU-145 prostate it was 17.1 µM; in the assay with COLO 205 colon, 7.73 µM. Also, the TGI is 29 µM in the assay on BT-549 breast and 23.4 µM with HCC-2998 colon.

As to `C=C1C(=O)O[C@H]2[C@H]1CC/C(COC(=O)NCCc1c[nH]c3ccc(OC)cc13)=C\CC[C@@]1(C)O[C@@H]21`, the GI50 was 0.453 µM in the assay with K-562 leukemia; 1.61 µM in the assay with TK-10 renal; 10.5 µM in the assay on A498 renal; 1.46 µM in the assay with HCT-116 colon; 1.61 µM with DU-145 prostate; 1.3 µM in the assay on COLO 205 colon. For the same compound, the GI50 with UACC-257 melanoma is 1.52 µM; with OVCAR-8 ovarian it was 1.97 µM; in the assay on BT-549 breast it was 1.4 µM; in the assay with HCC-2998 colon, 2.34 µM. The TGI with K-562 leukemia is 3.29 µM; in the assay with TK-10 renal, 3.11 µM; in the assay with A498 renal, 22.7 µM; with HCT-116 colon it was 3.11 µM; in the assay with DU-145 prostate, 4.43 µM; in the assay on COLO 205 colon, 2.78 µM. The TGI in the assay with UACC-257 melanoma came to 3.3 µM; in the assay on OVCAR-8 ovarian, 5.23 µM; in the assay on BT-549 breast it was 3.13 µM; with HCC-2998 colon it was 5.64 µM.

Turning to `CN1CCN(Cc2ccc(NC(=O)c3ccc(C#Cc4c(N)ncc5ccc(F)cc45)cc3)cc2C(F)(F)F)CC1`, the GI50 in the assay on K-562 leukemia is 0.677 µM; in the assay with TK-10 renal, 0.977 µM; with A498 renal it was 1.79 µM; in the assay with DU-145 prostate it was 0.968 µM; with COLO 205 colon, 0.901 µM; in the assay with UACC-257 melanoma, 1.02 µM. Besides, the GI50 with OVCAR-8 ovarian is 0.955 µM; with BT-549 breast it was 3.19 µM; in the assay with HCC-2998 colon, 0.87 µM. Further, the TGI in the assay on K-562 leukemia was 1.87 µM; in the assay with TK-10 renal it was 1.79 µM; with A498 renal, 9.71 µM; in the assay with DU-145 prostate, 1.77 µM; with COLO 205 colon, 1.64 µM; in the assay on UACC-257 melanoma it was 1.91 µM. For the same compound, the TGI with OVCAR-8 ovarian worked out at 1.81 µM; in the assay with BT-549 breast, 9.68 µM; in the assay on HCC-2998 colon, 1.62 µM.

For `O=Nc1ccc2ccccc2c1O`, the GI50 with TK-10 renal was 11.8 µM; in the assay with A498 renal, 14.3 µM; in the assay on HCT-116 colon, 2.6 µM; in the assay on DU-145 prostate, 10.4 µM; in the assay on COLO 205 colon, 4.79 µM; in the assay with UACC-257 melanoma, 2.13 µM. The values for the GI50 with OVCAR-8 ovarian, with BT-549 breast and with HCC-2998 colon were 2.67 µM, 17.7 µM and 14.7 µM, respectively. The TGI worked out at 24.5 µM in the assay on TK-10 renal; 28.2 µM in the assay with A498 renal; 7.36 µM with HCT-116 colon; 22.7 µM with DU-145 prostate; 16.6 µM with COLO 205 colon; 4.19 µM in the assay with UACC-257 melanoma. Besides, the figures for the TGI in the assay on OVCAR-8 ovarian, in the assay on BT-549 breast and in the assay with HCC-2998 colon were 6.63 µM, 31.6 µM and 29.1 µM, respectively.

For the compound `COc1ccccc1C#Cc1ccccc1C#CCCCCCC#Cc1ccccc1C#Cc1ccccc1OC`, the GI50 with K-562 leukemia is 31 µM; in the assay on TK-10 renal, over 100 µM; with A498 renal it was over 100 µM; in the assay on HCT-116 colon, 58 µM; in the assay on DU-145 prostate, over 100 µM; with COLO 205 colon, 80.1 µM. Further, the GI50 in the assay on UACC-257 melanoma was over 100 µM; in the assay on OVCAR-8 ovarian, over 100 µM; with BT-549 breast, over 100 µM; with HCC-2998 colon it was 18.8 µM. Moreover, the TGI in the assay with K-562 leukemia, in the assay with TK-10 renal, in the assay on A498 renal, with HCT-116 colon, with DU-145 prostate and in the assay on COLO 205 colon was over 100 µM throughout. Besides, the TGI is over 100 µM with UACC-257 melanoma, over 100 µM in the assay on OVCAR-8 ovarian, over 100 µM with BT-549 breast and 69.7 µM in the assay on HCC-2998 colon.

As to `N#CCc1ncc(-c2ccc(C(F)(F)F)cc2)c(NC2CCCCCC2)n1`, the GI50 in the assay on K-562 leukemia, with TK-10 renal, in the assay on A498 renal, in the assay with HCT-116 colon, in the assay with DU-145 prostate and with COLO 205 colon was over 10 µM throughout. Moreover, the GI50 with UACC-257 melanoma, in the assay with OVCAR-8 ovarian, in the assay on BT-549 breast and with HCC-2998 colon was over 10 µM in each case. In addition, the TGI in the assay on K-562 leukemia, in the assay with TK-10 renal, in the assay with A498 renal, with HCT-116 colon, in the assay with DU-145 prostate and with COLO 205 colon was over 10 µM each time. In addition, the TGI in the assay on UACC-257 melanoma, in the assay on OVCAR-8 ovarian, in the assay on BT-549 breast and with HCC-2998 colon was over 10 µM throughout.

As for `O=C(CCl)N1c2ccccc2Sc2ccc3ccccc3c21`, the GI50 was 0.659 µM with K-562 leukemia; 1.54 µM with TK-10 renal; 1.73 µM with A498 renal; 0.652 µM with HCT-116 colon; 1.53 µM with DU-145 prostate; 1.69 µM with COLO 205 colon. Further, the GI50 with UACC-257 melanoma was 1.48 µM; in the assay on OVCAR-8 ovarian, 1.64 µM; with BT-549 breast, 1.56 µM; in the assay on HCC-2998 colon it was 1.8 µM. For the same compound, the TGI was found to be 3.49 µM with K-562 leukemia; 2.92 µM in the assay on TK-10 renal; 3.31 µM in the assay on A498 renal; 2.06 µM with HCT-116 colon; 2.9 µM with DU-145 prostate; 3.14 µM with COLO 205 colon. Also, the TGI in the assay on UACC-257 melanoma came out at 2.87 µM; with OVCAR-8 ovarian it was 3.71 µM; in the assay with BT-549 breast, 3.52 µM; in the assay with HCC-2998 colon it was 3.25 µM.
